PubChem BioAssay AID2305 (GlaxoSmithKline (GSK), 2010)

System: P. falciparum 3D7 growth, pLDH absorbance
Assay: blood-stage malaria parasite growth potency – strain 3D7, dose response (AID 2305)

Structure (SMILES) | IC50
O=C(NCc1ccc(S(=O)(=O)N2CCC(CN3CCC(c4c[nH]c5ccccc45)CC3)CC2)s1)c1ccccc1 | 840 nM
O=C(NCCN1CCCC1)c1cc(-c2ccc(Cl)c(O)c2)c(-c2ccncc2)o1 | 1630 nM
CCN(CC)CCN(Cc1ccc(-c2ccc(C(F)(F)F)cc2)cc1)C(=O)Cn1c(CCc2ccc(F)c(F)c2)cc(=O)c2ccccc21 | 890 nM
CCCCCC(C)N=C(Nc1ccc(C#N)cc1O)Nc1cccc(Cl)c1Cl (stereo not drawn) | 800 nM
Nc1nc(N)c2cc(S(=O)(=O)c3ccc4ccccc4c3)ccc2n1 | 40 nM
COc1cccc(NC(=O)Nc2ccc(-c3oc(C(=O)NCC(c4ccccc4)N(C)C)cc3-c3ccncc3)cc2)c1 (stereo not drawn) | 1830 nM
COc1cc(OC)c2c(c1Cl)O[C@]1(C2=O)C(=O)C(Cc2ccccc2)(Cc2ccccc2)C(=O)C[C@H]1C | 970 nM
N#Cc1ccc(N2CCN(Cc3cccc(-c4ccc(-c5nc6ccccc6[nH]5)cc4)c3)CC2)nc1 | 1240 nM
COCCn1c(C)cc(C(=O)CN2C(=O)NC(C)(c3ccc(C(C)(C)C)cc3)C2=O)c1C (stereo not drawn) | 470 nM
NC(N)=NN=Cc1c2ccccc2c(Cl)c2ccc(Cl)cc12 | 230 nM
CC(CN1CCN(C)CC1)C(=O)Nc1ccc(-c2ccc(-c3nc4ccc(F)cc4[nH]3)cc2)cc1 (stereo not drawn) | 790 nM
O=C(NCCCCN1CCN(c2cccc3c2OCCO3)CC1)c1ccc(NC(=O)c2cc(Cl)cc(Cl)c2)cc1 | 220 nM
CCCN(CCC)CC(O)COc1ccccc1C(=O)Nc1ccccc1 (stereo not drawn) | 800 nM
COc1ccc(CCNC(=O)c2cc3c(=O)n4cccc(C)c4nc3n(C)c2=N)cc1 | 760 nM
O=C(Nc1cc2cc(-c3ccc(CN4CCCCC4)cc3)ccc2n2cnnc12)NC1CCCC1 | 1520 nM
COc1ccc(-c2cccc(NC(=O)c3ccc(Cl)cc3)c2)cc1CNC(C)C | 690 nM
Cc1noc(C)c1-c1cccc(CNCc2ccc(-c3cccc(-c4nc5c(C)cccc5[nH]4)c3)cc2)c1 | 220 nM
COc1ccc2nccc(NC(=O)OC3CCC(NCc4ccc5c(n4)NC(=O)CS5)CC3)c2c1 (stereo not drawn) | 920 nM
NS(=O)(=O)Cc1cccc(-c2ccnc3ccc(-c4cccc(S(N)(=O)=O)c4)cc23)c1 | 1560 nM

Structure (SMILES) | IC50
Cc1cc(N)c2cc(NC(=O)c3cccc(C(=O)Nc4ccc5nc(C)cc(N)c5c4)c3)ccc2n1 | 260 nM
Cc1ccc2c(=O)n(C)c(=O)n(C)c2n1 | 820 nM
c1ccc2[nH]c(-c3ccc(-c4ccc(CNCCc5ccncc5)cc4)s3)nc2c1 | 160 nM
NC1=NCN(OCc2ccc(Cl)c(Cl)c2)C(N)=N1 | 190 nM
Cc1nc(C(C)Nc2nncc(-c3ccc(Cl)cc3)n2)cs1 (stereo not drawn) | 1330 nM
CN(C(=O)/C=C/c1ccccc1F)C1CCN(CCCCCNC(=O)/C=C/c2ccc(Cl)c(Cl)c2)CC1 | 510 nM
O=C(Nc1cccc(CN2CCCN(Cc3ccc(O)cc3)CC2)c1)c1ccc(-c2ccccc2)cc1 | 340 nM
CC(=O)Nc1ccc(C2NC(=O)NC(c3ccccc3)=C2c2nc3ccccc3s2)cc1 (stereo not drawn) | 1110 nM
CC(=O)Nc1ncc(C(=O)Nc2cccc(-c3ccc(-c4nc5ccc(C(F)(F)F)cc5[nH]4)cc3)c2)s1 | 590 nM
N#Cc1ccc2[nH]cc(CN3CCC4(CC3)CN(CCNCc3ccccc3)C(=O)O4)c2c1 | 1160 nM
COc1ccc(-c2csc3nc(C)nc(Cl)c23)cc1OC | 360 nM
COc1cc2c(cc1OC)CN(CCc1ccc(NC(=O)c3cc4cc(Cl)ccc4[nH]3)cc1)CC2 | 1020 nM
Cc1cnc(NCC2CCCCC2)nc1N[C@@H](CO)C(=O)Nc1ccccc1 | 1100 nM
Cc1ccc(C[C@H](C)NC[C@H](O)c2cccc(C(F)(F)F)c2)cc1 | 980 nM
Cc1[nH]c(C)c(C(F)(F)F)c(=O)c1-c1ccc(Oc2ccc(OC(F)(F)F)cc2)cc1 | 170 nM
Cn1cnc(CCNC(=O)c2ccc(-c3cccc(-c4nc5ccc(C(F)(F)F)cc5[nH]4)c3)cc2)c1 | 730 nM
O=C(NCC1CCN(CCN2CCc3ccc4c(c3C2)OCO4)CC1)c1ccc(-c2ccc(C(F)(F)F)cc2)cc1 | 860 nM
O=C(Nc1ccc(Br)c(C(F)(F)F)c1)c1cccc([N+](=O)[O-])c1 | 910 nM
NC1CCN(Cc2ccc(-c3ccc(-c4nc5ccc(F)cc5[nH]4)cc3)cc2)C1 (stereo not drawn) | 180 nM
